According to patent US11446287B2, “Compounds and methods for EP300 or CBP modulation and indications therefor” (Opna Immuno-Oncology SA, priority 2019, dated 2022):

Biological target: T1, Recombinant human BRD4 containing dual bromodomains (BRD4-BD12 (1-477)) (Homo sapiens, UniProt O60885)
T1 construct: Recombinant human BRD4 containing dual bromodomains (BRD4-BD12 (1-477)); made in house; host or cells: E. coli BL21-CodonPlus (DE3), modified pET vector
Assay: BRD4 Alphascreen binding assay
How it was run: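 His-tagged human BRD4 tandem bromodomains (1-477, E. coli) incubated 1 h at room temperature with biotinylated tetra-acetylated H4 (1-21) peptide and compound in HEPES pH 7.5 buffer with 2 mM DTT. AlphaScreen signal read 30 min after adding beads (7.5 μg/ml); IC50 from four-parameter fit after normalization to controls.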

SMILES	IC50 [µM]
Cc1noc(C)c1-c1cnc2c(-c3ccc(C(=O)O)cc3C#CC3CC3)cn([C@@H](C)c3ccccn3)c2c1 [P-0171, (S)-3-(cyclopropylethynyl)-4-(6-(3,5-dimethylisoxazol-4-yl)-1-(1-(pyridin-2-yl)ethyl)-1H-pyrrolo[3,2-b]pyridin-3-yl)benzoic acid]	0.0001 to 1
COc1ccncc1-n1cc(-c2ccc(C(=O)O)cc2OC(F)(F)F)c2cc(-c3c(C)noc3C)cnc21 [P-0176, 4-(5-(3,5-dimethylisoxazol-4-yl)-1-(4-methoxypyridin-3-yl)-1H-pyrrolo[2,3-b]pyridin-3-yl)-3-(trifluoromethoxy)benzoic acid]	1 to 8
CCOc1cc(C(=O)O)cc(OCC)c1-n1cc(CC2CCC2)c2ncc(-c3c(C)nnn3C)cc21 [P-0190, 4-(3-(cyclobutylmethyl)-6-(1,4-dimethyl-1H-1,2,3-triazol-5-yl)-1H-pyrrolo[3,2-b]pyridin-1-yl)-3,5-diethoxybenzoic acid]	1 to 8
Cc1noc(C)c1-c1cnc2c(-c3ccc(C(=O)O)cc3F)c(C(F)(F)F)n([C@@H](C)c3ccccn3)c2c1 [P-0234, (S)-4-(6-(3,5-dimethylisoxazol-4-yl)-1-(1-(pyridin-2-yl)ethyl)-2-(trifluoromethyl)-1H-pyrrolo[3,2-b]pyridin-3-yl)-3-fluorobenzoic acid]	1 to 8
Cc1noc(C)c1-c1cnc2c(c1)c(-c1c(F)cc(C(=O)O)cc1OC(F)(F)F)cn2C(C1CC1)C1CC1 [P-0230, 4-(1-(dicyclopropylmethyl)-5-(3,5-dimethylisoxazol-4-yl)-1H-pyrrolo[2,3-b]pyridin-3-yl)-3-fluoro-5-(trifluoromethoxy)benzoic acid]	1 to 8
Cc1noc(C)c1-c1cnc2c(-c3cc(F)cc(C(=O)O)c3)c(C(F)(F)F)n([C@@H](C)c3ccccn3)c2c1 [P-0240, (S)-3-(6-(3,5-dimethylisoxazol-4-yl)-1-(1-(pyridin-2-yl)ethyl)-2-(trifluoromethyl)-1H-pyrrolo[3,2-b]pyridin-3-yl)-5-fluorobenzoic acid]	8 to 1000
CCOc1cc(C(=O)O)cc(OCC)c1-n1cc(Cc2ccccn2)c2ncc(-c3c(C)noc3C)cc21 [P-0187, 4-(6-(3,5-dimethylisoxazol-4-yl)-3-(pyridin-2-ylmethyl)-1H-pyrrolo[3,2-b]pyridin-1-yl)-3,5-diethoxybenzoic acid]	8 to 1000
Cc1noc(C)c1-c1cnc2c(c1)c(-c1ccc(C(=O)O)cc1OC(C)C)cn2C(C1CC1)C1CC1 [P-0213, 4-(1-(dicyclopropylmethyl)-5-(3,5-dimethylisoxazol-4-yl)-1H-pyrrolo[2,3-b]pyridin-3-yl)-3-isopropoxybenzoic acid]	8 to 1000
CCOc1cc(C(=O)O)cc(OCC)c1-n1cc(CC2CCC2)c2ncc(-c3c(COC)noc3C)cc21 [P-0210, 4-(3-(cyclobutylmethyl)-6-(3-(methoxymethyl)-5-methylisoxazol-4-yl)-1H-pyrrolo[3,2-b]pyridin-1-yl)-3,5-diethoxybenzoic acid]	8 to 1000
CCOc1cc(C(=O)O)cc(OCC)c1-n1cc(-c2cccc(Cl)c2)c2ncc(-c3c(C)noc3C)cc21 [P-0185, 4-(3-(3-chlorophenyl)-6-(3,5-dimethylisoxazol-4-yl)-1H-pyrrolo[3,2-b]pyridin-1-yl)-3,5-diethoxybenzoic acid]	1 to 8
Cc1noc(C)c1-c1cnc2c(c1)c(-c1ccc(C(=O)O)cc1OC(F)(F)F)c(C)n2-c1ccccn1 [P-0228, 4-(5-(3,5-dimethylisoxazol-4-yl)-2-methyl-1-(pyridin-2-yl)-1H-pyrrolo[2,3-b]pyridin-3-yl)-3-(trifluoromethoxy)benzoic acid]	1 to 8
CCOc1cc(C(=O)O)cc(OC(C)C)c1-c1cn([C@@H](C)c2ccccn2)c2ncc(-c3c(C)noc3C)cc12 [P-0174, (S)-4-(5-(3,5-dimethylisoxazol-4-yl)-1-(1-(pyridin-2-yl)ethyl)-1H-pyrrolo[2,3-b]pyridin-3-yl)-3-ethoxy-5-isopropoxybenzoic acid]	8 to 1000
Cc1noc(C)c1-c1cnc2c(c1)c(-c1ccc(C(=O)O)cc1OC(F)(F)F)cn2-c1ncccc1C#CC1CC1 [P-0216, 4-(1-(3-(cyclopropylethynyl)pyridin-2-yl)-5-(3,5-dimethylisoxazol-4-yl)-1H-pyrrolo[2,3-b]pyridin-3-yl)-3-(trifluoromethoxy)benzoic acid]	8 to 1000
CCOc1cc(C(=O)O)cc(OCC)c1-n1cc(-c2ccc(F)c(Cl)c2)c2ncc(-c3c(C)noc3C)cc21 [P-0209, 4-(3-(3-chloro-4-fluorophenyl)-6-(3,5-dimethylisoxazol-4-yl)-1H-pyrrolo[3,2-b]pyridin-1-yl)-3,5-diethoxybenzoic acid]	1 to 8
Cc1noc(C)c1-c1cnc2c(c1)c(-c1ccc(C(=O)O)cc1OC(F)(F)F)cn2-c1cnccc1Cl [P-0177, 4-(1-(4-chloropyridin-3-yl)-5-(3,5-dimethylisoxazol-4-yl)-1H-pyrrolo[2,3-b]pyridin-3-yl)-3-(trifluoromethoxy)benzoic acid]	8 to 1000
Cc1noc(C)c1-c1cnc2c(c1)c(-c1ccc(C(=O)O)cc1OC(F)(F)F)cn2-c1ncccc1F [P-0182, 4-(5-(3,5-dimethylisoxazol-4-yl)-1-(3-fluoropyridin-2-yl)-1H-pyrrolo[2,3-b]pyridin-3-yl)-3-(trifluoromethoxy)benzoic acid]	1 to 8
COc1cccc(OC)c1-n1cc(-c2ccccc2)c2ncc(-c3c(C)noc3C)cc21 [P-0221, 4-(1-(2,6-dimethoxyphenyl)-3-phenyl-1H-pyrrolo[3,2-b]pyridin-6-yl)-3,5-dimethylisoxazole]	8 to 1000
Cc1noc(C)c1-c1cnc2c(c1)c(-c1ccc(C(=O)O)cc1)cn2C(C)c1ncccn1 (stereo not drawn) [P-0013, 4-(5-(3,5-dimethylisoxazol-4-yl)-1-(1-(pyrimidin-2-yl)ethyl)-1H-pyrrolo[2,3-b]pyridin-3-yl)benzoic acid]	8 to 1000
